Test results taken from patent US10800791B2, “Triazole ACC inhibitors and uses thereof” (Gilead Apollo, LLC, priority 2015, dated 2020).
pIC50: −log10 of the molar value. ≈ marks a conversion by molar mass, not a printed value. Like-named read-outs stand apart in the source and are kept apart here.

Assays:
human (hACC2) = human (hACC2) (Homo sapiens, UniProt O00763); experiment: In vitro ACC inhibition assay (ADP-Glo), hACC2; format: biochemical; settings: Table 2b, additional results, 5 nM ACC2, 20 μM ATP, 20 μM acetyl-CoA
Chain of human (hACC2) (O00763 whole entry): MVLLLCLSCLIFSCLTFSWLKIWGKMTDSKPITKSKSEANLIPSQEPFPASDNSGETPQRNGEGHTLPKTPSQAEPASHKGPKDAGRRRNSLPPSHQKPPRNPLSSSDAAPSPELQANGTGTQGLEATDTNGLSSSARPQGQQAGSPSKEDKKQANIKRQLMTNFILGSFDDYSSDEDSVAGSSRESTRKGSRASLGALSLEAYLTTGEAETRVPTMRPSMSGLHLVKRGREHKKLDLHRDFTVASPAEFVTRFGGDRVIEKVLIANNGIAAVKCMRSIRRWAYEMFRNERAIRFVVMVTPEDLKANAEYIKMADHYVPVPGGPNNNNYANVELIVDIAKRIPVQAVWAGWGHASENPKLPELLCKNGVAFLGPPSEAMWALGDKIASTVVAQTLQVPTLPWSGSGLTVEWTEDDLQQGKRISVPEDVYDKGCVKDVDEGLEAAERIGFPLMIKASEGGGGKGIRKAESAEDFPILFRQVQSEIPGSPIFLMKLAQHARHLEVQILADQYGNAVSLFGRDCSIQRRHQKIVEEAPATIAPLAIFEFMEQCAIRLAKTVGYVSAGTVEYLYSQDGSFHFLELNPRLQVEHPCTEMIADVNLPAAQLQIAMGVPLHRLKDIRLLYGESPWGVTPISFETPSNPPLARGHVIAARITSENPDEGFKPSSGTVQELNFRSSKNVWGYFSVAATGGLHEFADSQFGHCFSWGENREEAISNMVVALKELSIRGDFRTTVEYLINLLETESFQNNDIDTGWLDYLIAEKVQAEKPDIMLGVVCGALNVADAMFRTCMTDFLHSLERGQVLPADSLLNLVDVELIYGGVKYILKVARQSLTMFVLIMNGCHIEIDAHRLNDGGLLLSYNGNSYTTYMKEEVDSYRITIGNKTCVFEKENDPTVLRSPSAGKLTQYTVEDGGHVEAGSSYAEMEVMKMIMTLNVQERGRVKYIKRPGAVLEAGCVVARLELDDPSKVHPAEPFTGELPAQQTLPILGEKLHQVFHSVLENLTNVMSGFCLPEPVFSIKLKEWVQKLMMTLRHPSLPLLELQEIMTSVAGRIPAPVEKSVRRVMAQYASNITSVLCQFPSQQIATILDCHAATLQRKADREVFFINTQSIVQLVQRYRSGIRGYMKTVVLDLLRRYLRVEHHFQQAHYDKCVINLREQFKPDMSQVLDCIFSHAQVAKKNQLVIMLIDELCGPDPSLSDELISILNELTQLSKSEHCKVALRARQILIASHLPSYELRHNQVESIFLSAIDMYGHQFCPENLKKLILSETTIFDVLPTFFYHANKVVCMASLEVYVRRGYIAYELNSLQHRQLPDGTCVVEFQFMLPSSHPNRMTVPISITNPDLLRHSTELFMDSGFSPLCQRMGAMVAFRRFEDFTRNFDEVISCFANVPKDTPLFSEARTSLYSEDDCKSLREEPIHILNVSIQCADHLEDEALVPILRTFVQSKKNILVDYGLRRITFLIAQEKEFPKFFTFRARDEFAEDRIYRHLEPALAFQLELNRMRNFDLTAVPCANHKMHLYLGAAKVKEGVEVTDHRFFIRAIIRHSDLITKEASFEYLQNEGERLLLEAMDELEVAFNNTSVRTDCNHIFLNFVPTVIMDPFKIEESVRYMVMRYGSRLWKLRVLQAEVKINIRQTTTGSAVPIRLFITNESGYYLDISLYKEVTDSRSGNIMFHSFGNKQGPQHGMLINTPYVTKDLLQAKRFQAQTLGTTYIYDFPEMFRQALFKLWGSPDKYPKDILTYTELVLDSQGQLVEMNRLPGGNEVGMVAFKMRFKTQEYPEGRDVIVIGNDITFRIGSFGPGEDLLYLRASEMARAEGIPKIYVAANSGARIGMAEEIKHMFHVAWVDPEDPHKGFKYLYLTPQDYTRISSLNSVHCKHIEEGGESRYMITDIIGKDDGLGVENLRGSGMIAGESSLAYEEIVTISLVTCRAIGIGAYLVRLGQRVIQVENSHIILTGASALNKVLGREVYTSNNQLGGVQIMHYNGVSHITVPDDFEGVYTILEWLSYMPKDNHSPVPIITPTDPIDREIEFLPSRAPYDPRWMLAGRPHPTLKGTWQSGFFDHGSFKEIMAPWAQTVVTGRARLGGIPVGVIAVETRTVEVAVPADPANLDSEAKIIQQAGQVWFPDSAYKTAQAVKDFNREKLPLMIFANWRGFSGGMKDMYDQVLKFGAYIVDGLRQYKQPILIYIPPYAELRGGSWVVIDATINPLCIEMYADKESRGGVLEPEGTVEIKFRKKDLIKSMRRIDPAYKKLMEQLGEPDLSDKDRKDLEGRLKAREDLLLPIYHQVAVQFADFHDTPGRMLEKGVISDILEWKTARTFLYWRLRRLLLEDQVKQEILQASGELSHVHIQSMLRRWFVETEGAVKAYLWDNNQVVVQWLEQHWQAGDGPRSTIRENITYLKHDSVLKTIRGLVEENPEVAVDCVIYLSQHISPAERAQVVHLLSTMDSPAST
Experimental: The detailed procedure is as follows. […] 10 μL ADP glo reagent was added. […] 20 μL kinase detection reagent was added.

C. albicans = experiment: Antifungal Activity Assay (broth microtiter MIC), C. albicans; format: cell-based, Candida albicans; settings: Candida albicans, ATCC90028, 48 h
Method in brief: (§1)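 CLSI M27-A3 broth microdilution in RPMI 1640+MOPS, final inoculum 2.5×10^3 CFU/mL from overnight Sabouraud cultures grown at 35 °C. MIC read visually at 48 h against growth control.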

C. krusei = experiment: Antifungal Activity Assay (broth microtiter MIC), C. krusei; format: cell-based, Candida krusei; settings: Pichia kudriavzevii, ATCC6258, 48 h
Method in brief: as §1

C. parapsilosis = experiment: Antifungal Activity Assay (broth microtiter MIC), C. parapsilosis; format: cell-based, Candida parapsilosis; settings: Lodderomyces parapsilosis, ATCC22019, 48 h
Method in brief: as §1

fungal (fACC2) = fungal (fACC2) (UniProt Q00955); settings: read-out: fACC2 (in vitro ACC2 Inhibition Assay, IC50); Table 2b, additional results; ADP-Glo, 5 nM ACC2, 20 μM ATP, 20 μM acetyl-CoA
Chain of fungal (fACC2) (Q00955 whole entry): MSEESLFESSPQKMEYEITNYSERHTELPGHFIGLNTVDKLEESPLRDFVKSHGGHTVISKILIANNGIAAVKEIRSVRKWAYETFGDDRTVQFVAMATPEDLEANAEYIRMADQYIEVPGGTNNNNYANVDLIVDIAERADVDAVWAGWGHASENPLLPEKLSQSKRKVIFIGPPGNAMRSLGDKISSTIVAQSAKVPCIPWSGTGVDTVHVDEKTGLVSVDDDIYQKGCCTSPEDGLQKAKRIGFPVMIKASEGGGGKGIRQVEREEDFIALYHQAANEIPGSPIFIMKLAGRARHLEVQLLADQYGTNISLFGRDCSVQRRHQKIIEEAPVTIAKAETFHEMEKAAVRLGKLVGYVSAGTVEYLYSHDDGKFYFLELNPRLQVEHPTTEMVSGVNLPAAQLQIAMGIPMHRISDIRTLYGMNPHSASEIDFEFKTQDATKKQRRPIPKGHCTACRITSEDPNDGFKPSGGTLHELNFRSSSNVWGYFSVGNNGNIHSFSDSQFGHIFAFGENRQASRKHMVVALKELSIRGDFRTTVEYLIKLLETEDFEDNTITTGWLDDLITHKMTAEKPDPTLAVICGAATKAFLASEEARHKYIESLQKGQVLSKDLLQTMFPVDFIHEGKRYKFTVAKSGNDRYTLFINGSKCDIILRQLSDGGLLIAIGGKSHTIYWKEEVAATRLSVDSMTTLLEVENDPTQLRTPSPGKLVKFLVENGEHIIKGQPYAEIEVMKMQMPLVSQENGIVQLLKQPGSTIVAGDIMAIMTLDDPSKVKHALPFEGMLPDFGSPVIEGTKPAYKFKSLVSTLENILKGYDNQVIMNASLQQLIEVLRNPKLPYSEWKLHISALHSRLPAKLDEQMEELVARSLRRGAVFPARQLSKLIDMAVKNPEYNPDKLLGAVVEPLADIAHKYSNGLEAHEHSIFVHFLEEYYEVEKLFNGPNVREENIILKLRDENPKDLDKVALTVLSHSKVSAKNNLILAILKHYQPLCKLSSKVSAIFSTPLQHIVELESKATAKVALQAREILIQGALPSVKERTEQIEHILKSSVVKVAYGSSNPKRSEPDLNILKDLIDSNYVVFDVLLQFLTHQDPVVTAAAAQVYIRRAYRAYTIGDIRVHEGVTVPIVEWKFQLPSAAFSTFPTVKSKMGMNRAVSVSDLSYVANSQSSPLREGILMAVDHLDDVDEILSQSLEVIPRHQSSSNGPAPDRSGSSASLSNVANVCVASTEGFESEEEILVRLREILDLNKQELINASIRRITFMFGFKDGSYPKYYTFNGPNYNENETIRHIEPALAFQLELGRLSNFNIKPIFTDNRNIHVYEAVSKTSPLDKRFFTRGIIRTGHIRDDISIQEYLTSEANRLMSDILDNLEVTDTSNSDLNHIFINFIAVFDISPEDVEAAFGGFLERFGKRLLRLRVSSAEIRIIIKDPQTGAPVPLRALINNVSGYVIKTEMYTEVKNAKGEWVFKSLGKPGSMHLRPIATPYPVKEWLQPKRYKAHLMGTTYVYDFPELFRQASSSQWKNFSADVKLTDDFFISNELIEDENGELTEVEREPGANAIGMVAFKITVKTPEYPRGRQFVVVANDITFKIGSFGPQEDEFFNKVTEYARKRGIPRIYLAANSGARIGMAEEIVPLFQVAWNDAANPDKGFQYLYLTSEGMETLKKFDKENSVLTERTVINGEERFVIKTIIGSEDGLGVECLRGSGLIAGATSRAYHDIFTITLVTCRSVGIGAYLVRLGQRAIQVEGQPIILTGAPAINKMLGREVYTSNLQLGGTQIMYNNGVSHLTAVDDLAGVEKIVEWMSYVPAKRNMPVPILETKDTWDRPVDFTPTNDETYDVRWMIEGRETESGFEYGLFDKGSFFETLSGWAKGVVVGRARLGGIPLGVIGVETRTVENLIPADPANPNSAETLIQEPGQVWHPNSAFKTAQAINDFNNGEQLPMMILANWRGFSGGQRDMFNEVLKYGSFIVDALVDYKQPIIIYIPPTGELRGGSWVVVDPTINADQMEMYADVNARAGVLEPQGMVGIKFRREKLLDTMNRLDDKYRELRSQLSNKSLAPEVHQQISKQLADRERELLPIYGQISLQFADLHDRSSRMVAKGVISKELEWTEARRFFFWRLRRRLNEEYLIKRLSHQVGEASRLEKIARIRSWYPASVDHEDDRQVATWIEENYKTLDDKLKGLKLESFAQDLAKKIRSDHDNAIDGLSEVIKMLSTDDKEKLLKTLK

[1] = read-out: MIC, C. albicans ATCC 90028, Table 3b (additional results), 3 replicates, MIC recorded at 48 h
[2] = read-out: MIC, C. krusei ATCC 6258, Table 3b (additional results), 3 replicates, MIC recorded at 48 h
[3] = read-out: MIC, C. parapsilosis ATCC 22019, Table 3b (additional results), 3 replicates, MIC recorded at 48 h
[4] = Table 3b (additional results), ATCC 90028, 3 replicates, MIC recorded at 48 h, read-out: MIC, C. albicans ATCC 90028
[5] = Table 3b (additional results), ATCC 6258, 3 replicates, MIC recorded at 48 h, read-out: MIC, C. krusei ATCC 6258
[6] = Table 3b (additional results), ATCC 22019, 3 replicates, MIC recorded at 48 h, read-out: MIC, C. parapsilosis ATCC 22019

SMILES	pIC50 (human (hACC2))	MIC (C. albicans; [1])	MIC (C. krusei; [2])	MIC (C. parapsilosis; [3])	pIC50 (fungal (fACC2))	MIC (C. albicans; [4])	MIC (C. krusei; [5])	MIC (C. parapsilosis; [6])
COc1ccc(F)cc1[C@H](Cn1c(=O)n(C(C)(C)C(=O)NC(C)C)c(=O)c2c(C)c(-n3nccn3)sc21)OCCC(=O)N(C)O [Compound I-219]	8.00 to 8.30	0.25 to 1 µg/mL (≈ 0.387 to 1.55 µM)	0.25 to 1 µg/mL (≈ 0.387 to 1.55 µM)	0.25 to 1 µg/mL (≈ 0.387 to 1.55 µM)	8.30 to 9.00			
COc1ccc(F)cc1[C@H](Cn1c(=O)n(C(C)(C)C(=O)NC(C)C)c(=O)c2c(C)c(-n3nccn3)sc21)OCCC(O)CO (some centres unmarked) [Compound I-220]	7.40 to 8.00				8.30 to 9.00	0.25 to 1 µg/mL (≈ 0.395 to 1.58 µM)	0.25 to 1 µg/mL (≈ 0.395 to 1.58 µM)	0.25 to 1 µg/mL (≈ 0.395 to 1.58 µM)
COc1ccc(Cl)cc1[C@H](Cn1c(=O)n(C(C)(C)C(=O)NC2CCC2)c(=O)c2c(C)c(-n3nccn3)sc21)OC1CCOCC1 [Compound I-228]	8.00 to 8.30				8.30 to 9.00	0.25 to 1 µg/mL (≈ 0.38 to 1.52 µM)	0.06 to 0.249 µg/mL (≈ 0.0913 to 0.379 µM)	0.25 to 1 µg/mL (≈ 0.38 to 1.52 µM)
CCc1ccc(F)cc1[C@H](Cn1c(=O)n(C(C)(C)C(=O)NC2CCC2)c(=O)c2c(C)c(-n3nccn3)sc21)OC1CCOCC1 [Compound I-232]	8.00 to 8.30				8.30 to 9.00	2.01 to 4 µg/mL (≈ 3.15 to 6.26 µM)	1.01 to 2 µg/mL (≈ 1.58 to 3.13 µM)	1.01 to 2 µg/mL (≈ 1.58 to 3.13 µM)
COc1ccc(F)cc1[C@H](Cn1c(=O)n(C(C)(C)C(=O)NC(C)C)c(=O)c2c(C)c(-n3nccn3)sc21)O[C@H]1C[C@@H](OCc2ccccc2)C1 [Compound I-233]	7.40 to 8.00				8.30 to 9.00	0.25 to 1 µg/mL (≈ 0.355 to 1.42 µM)	0.25 to 1 µg/mL (≈ 0.355 to 1.42 µM)	0.25 to 1 µg/mL (≈ 0.355 to 1.42 µM)
Cc1c(-n2nccn2)sc2c1c(=O)n(C(C)(C)C(=O)NC(C)C)c(=O)n2C[C@H](OCCO)c1cc(F)ccc1OCc1ccccc1 [Compound I-237]	7.40 to 8.00				8.30 to 9.00	1.01 to 2 µg/mL (≈ 1.52 to 3.01 µM)	1.01 to 2 µg/mL (≈ 1.52 to 3.01 µM)	1.01 to 2 µg/mL (≈ 1.52 to 3.01 µM)
CCc1ccccc1[C@H](Cn1c(=O)n(C(C)(C)C(=O)NC(C)C)c(=O)c2c(C)c(-n3nccn3)sc21)O[C@H]1CC[C@@H](C#N)CC1 [Compound I-242]	8.30 to 9.00	1.01 to 2 µg/mL (≈ 1.6 to 3.17 µM)	1.01 to 2 µg/mL (≈ 1.6 to 3.17 µM)	1.01 to 2 µg/mL (≈ 1.6 to 3.17 µM)	8.30 to 9.00			
CCc1ccc(F)cc1[C@H](Cn1c(=O)n(C(C)(C)C(=O)NC(C)C)c(=O)c2c(C)c(-n3nccn3)sc21)OC[C@H](C)C#N [Compound I-243]	< 7.40				8.30 to 9.00	2.01 to 4 µg/mL (≈ 3.3 to 6.56 µM)	> 4.01 µg/mL	2.01 to 4 µg/mL (≈ 3.3 to 6.56 µM)
CCc1ccc(F)cc1[C@H](Cn1c(=O)n(C(C)(C)C(=O)NC(C)C)c(=O)c2c(C)c(-n3nccn3)sc21)OC[C@@H](C)C#N [Compound I-244]	< 7.40				8.30 to 9.00	2.01 to 4 µg/mL (≈ 3.3 to 6.56 µM)	> 4.01 µg/mL	2.01 to 4 µg/mL (≈ 3.3 to 6.56 µM)
Cc1c(-n2nccn2)sc2c1c(=O)n(C(C)(C)C(=O)NC(C)C)c(=O)n2C[C@H](OCCC#N)c1cc(F)ccc1OCc1ccccc1 [Compound I-249]	8.00 to 8.30				9.00 to 9.52	2.01 to 4 µg/mL (≈ 2.98 to 5.94 µM)	2.01 to 4 µg/mL (≈ 2.98 to 5.94 µM)	1.01 to 2 µg/mL (≈ 1.5 to 2.97 µM)
COc1ccc(F)cc1[C@H](Cn1c(=O)n(C(C)(C)C(=O)NC(C)C)c(=O)c2c(C)c(-n3nccn3)sc21)OCCOC(=O)C(C)C [Compound I-250]	8.00 to 8.30				8.30 to 9.00	1.01 to 2 µg/mL (≈ 1.53 to 3.04 µM)	0.25 to 1 µg/mL (≈ 0.38 to 1.52 µM)	0.25 to 1 µg/mL (≈ 0.38 to 1.52 µM)
COc1ccc(F)cc1[C@@H](Cn1c(=O)n(C(C)(C)C(=O)NC(C)C)c(=O)c2c(C)c(-n3nccn3)sc21)OC(=O)CO [Compound I-261]	8.00 to 8.30				9.00 to 9.52	0.25 to 1 µg/mL (≈ 0.415 to 1.66 µM)	0.06 to 0.249 µg/mL (≈ 0.0996 to 0.413 µM)	1.01 to 2 µg/mL (≈ 1.68 to 3.32 µM)
COc1ccc(F)cc1[C@@H](Cn1c(=O)n(C(C)(C)C(=O)NC(C)C)c(=O)c2c(C)c(-n3nccn3)sc21)OC(=O)C(C)(C)O [Compound I-263]	7.40 to 8.00	0.25 to 1 µg/mL (≈ 0.396 to 1.59 µM)	0.25 to 1 µg/mL (≈ 0.396 to 1.59 µM)	1.01 to 2 µg/mL (≈ 1.6 to 3.17 µM)	9.00 to 9.52			
CCOC(=O)[C@H]1CC[C@@H](O[C@@H](Cn2c(=O)n(C(C)(C)C(=O)NC(C)C)c(=O)c3c(C)c(-n4nccn4)sc32)c2cc(F)ccc2OC)CC1 [Compound I-264]	7.40 to 8.00				8.30 to 9.00	0.25 to 1 µg/mL (≈ 0.358 to 1.43 µM)	0.06 to 0.249 µg/mL (≈ 0.0859 to 0.356 µM)	0.25 to 1 µg/mL (≈ 0.358 to 1.43 µM)
COc1ccc(F)cc1[C@H](Cn1c(=O)n(C(C)(C)C(=O)NC(C)C)c(=O)c2c(C)c(-n3nccn3)sc21)O[C@H]1CC[C@@H](C(=O)O)CC1 [Compound I-265]	7.40 to 8.00				8.30 to 9.00	0.25 to 1 µg/mL (≈ 0.373 to 1.49 µM)	0.06 to 0.249 µg/mL (≈ 0.0895 to 0.371 µM)	0.25 to 1 µg/mL (≈ 0.373 to 1.49 µM)
CCOC(=O)[C@H]1CC[C@H](O[C@@H](Cn2c(=O)n(C(C)(C)C(=O)NC(C)C)c(=O)c3c(C)c(-n4nccn4)sc32)c2cc(F)ccc2OC)CC1 [Compound I-269]	< 7.40				8.30 to 9.00	0.25 to 1 µg/mL (≈ 0.358 to 1.43 µM)	0.06 to 0.249 µg/mL (≈ 0.0859 to 0.356 µM)	0.25 to 1 µg/mL (≈ 0.358 to 1.43 µM)
COc1ccc(F)cc1[C@H](Cn1c(=O)n(C(C)(C)C(=O)NC(C)C)c(=O)c2c(C)c(-n3nccn3)sc21)O[C@H]1CC[C@H](C(=O)O)CC1 [Compound I-270]	7.40 to 8.00				9.00 to 9.52	0.25 to 1 µg/mL (≈ 0.373 to 1.49 µM)	0.06 to 0.249 µg/mL (≈ 0.0895 to 0.371 µM)	0.25 to 1 µg/mL (≈ 0.373 to 1.49 µM)
COc1ccc(F)cc1[C@H](Cn1c(=O)n(C(C)(C)C(=O)NC(C)C)c(=O)c2c(C)c(-n3nccn3)sc21)OC[C@H](C)C(=O)O [Compound I-273]	< 7.40				9.00 to 9.52	0.25 to 1 µg/mL (≈ 0.396 to 1.59 µM)	0.25 to 1 µg/mL (≈ 0.396 to 1.59 µM)	1.01 to 2 µg/mL (≈ 1.6 to 3.17 µM)
COc1ccc(F)cc1[C@H](Cn1c(=O)n(C(C)(C)C(=O)NC(C)C)c(=O)c2c(C)c(-n3nccn3)sc21)OC[C@@H](C)C(=O)O [Compound I-274]	< 7.40				9.00 to 9.52	0.25 to 1 µg/mL (≈ 0.396 to 1.59 µM)	0.25 to 1 µg/mL (≈ 0.396 to 1.59 µM)	1.01 to 2 µg/mL (≈ 1.6 to 3.17 µM)
